According to ChEMBL document CHEMBL1201862, “PubChem BioAssay data set” (2004):
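Grown in 96-well plates, cells were treated for 48 hours with each compound at five concentrations. Insufficient inhibition: endpoint recorded as highest concentration tested. GI50: concentration for 50% inhibition of growth.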 Active and inactive are the calls of the source. Cut-off read from the data, not from the text of the source: active = GI50 up to about 1.1 µM and inactive = higher.

How the values were obtained:
Assay in all cases: inhibition of tumour cell growth, NCI panel, 48 h
786-0 = test system: 786-0
A498 = test system: A498
A549 = test system: A549
ACHN = test system: ACHN
CAKI-1 = test system: CAKI-1
CCRF-CEM = test system: CCRF-CEM
COLO 205 = test system: COLO 205
DLD-1 = test system: DLD-1
DMS-114 = test system: DMS-114
DMS-273 = test system: DMS-273
EKVX = test system: EKVX
HCC 2998 = test system: HCC 2998
HCT-116 = test system: HCT-116
HCT-15 = test system: HCT-15
HL-60 = test system: HL-60
HOP-18 = test system: HOP-18
HOP-62 = test system: HOP-62
HOP-92 = test system: HOP-92
HT-29 = test system: HT-29
IGROV-1 = test system: IGROV-1
K562 = test system: K562
KM-20L2 = test system: KM-20L2
KM12 = test system: KM12
LOX IMVI = test system: LOX IMVI
LXFL 529 = test system: LXFL 529
M14 = test system: M14
M19-MEL = test system: M19-MEL
MOLT-4 = test system: MOLT-4
Malme-3M = test system: Malme-3M
NCI-H226 = test system: NCI-H226
NCI-H23 = test system: NCI-H23
NCI-H460 = test system: NCI-H460
NCI-H522 = test system: NCI-H522
OVCAR-3 = test system: OVCAR-3
OVCAR-4 = test system: OVCAR-4
OVCAR-5 = test system: OVCAR-5
OVCAR-8 = test system: OVCAR-8
RPMI-8226 = test system: RPMI-8226
RXF 393 = test system: RXF 393
RXF 631 = test system: RXF 631
SF-268 = test system: SF-268
SF-295 = test system: SF-295
SF-539 = test system: SF-539
SK-MEL-28 = test system: SK-MEL-28
SK-MEL-2 = test system: SK-MEL-2
SK-MEL-5 = test system: SK-MEL-5
SK-OV-3 = test system: SK-OV-3
SN12C = test system: SN12C
SNB-19 = test system: SNB-19
SNB-75 = test system: SNB-75
SNB-78 = test system: SNB-78
SW-620 = test system: SW-620
TK-10 = test system: TK-10
U-251 = test system: U-251
UACC-257 = test system: UACC-257
UACC-62 = test system: UACC-62
UO-31 = test system: UO-31
XF498 = test system: XF498
SR = test system: SR

In the case of `CC(C)(C)OC(=O)NC(Cc1ccccc1)C(=S)N1CCCC1` (configuration not stated), the GI50 (786-0) is reported as > 100 µM (inactive), the GI50 (A498) is reported as > 100 µM (inactive) and the GI50 (A549) is reported as > 100 µM (inactive). For the same molecule, the GI50 (ACHN) was > 100 µM (inactive), the GI50 (CAKI-1) was > 50.9 µM (inactive) and the GI50 (CCRF-CEM) was 69.2 µM (inactive). For the same molecule, the GI50 (COLO 205) was > 100 µM (inactive), the GI50 (DLD-1) was 62.4 µM (inactive) and the GI50 (DMS-114) was 65.5 µM (inactive). The GI50 (DMS-273) was > 79.3 µM (inactive), the GI50 (EKVX) was 52.6 µM (inactive) and the GI50 (HCC 2998) was > 100 µM (inactive). For the same molecule, the GI50 (HCT-116) was > 100 µM (inactive), the GI50 (HCT-15) was 75.5 µM and the GI50 (HL-60) was 89.5 µM (inactive). For the same molecule, the GI50 (HOP-18) was > 100 µM (inactive), the GI50 (HOP-62) was 25.8 µM (inactive) and the GI50 (HOP-92) was 31.7 µM (inactive). The GI50 (HT-29) was 85.7 µM (inactive), the GI50 (IGROV-1) was > 100 µM (inactive) and the GI50 (K562) was 78.3 µM (inactive). The GI50 (KM-20L2) was > 100 µM (inactive), the GI50 (KM12) was > 100 µM (inactive) and the GI50 (LOX IMVI) was > 87.9 µM (inactive). The GI50 (LXFL 529) was > 90.4 µM (inactive), the GI50 (M14) was > 100 µM (inactive) and the GI50 (M19-MEL) was > 100 µM (inactive). For the same molecule, the GI50 (MOLT-4) was 42.6 µM (inactive), the GI50 (Malme-3M) was > 100 µM (inactive) and the GI50 (NCI-H226) was > 100 µM (inactive). The GI50 (NCI-H23) was 48.8 µM (inactive), the GI50 (NCI-H460) was > 93.8 µM (inactive) and the GI50 (NCI-H522) was 25 µM (inactive). For the same molecule, the GI50 (OVCAR-3) was > 100 µM (inactive), the GI50 (OVCAR-4) was 86.3 µM (inactive) and the GI50 (OVCAR-5) was > 100 µM (inactive). For the same molecule, the GI50 (OVCAR-8) was > 100 µM (inactive), the GI50 (RPMI-8226) was 31.1 µM (inactive) and the GI50 (RXF 393) was 58.9 µM (inactive). For the same molecule, the GI50 (RXF 631) was > 100 µM (inactive), the GI50 (SF-268) was > 100 µM (inactive) and the GI50 (SF-295) was 95.3 µM (inactive). The GI50 (SF-539) was > 100 µM (inactive), the GI50 (SK-MEL-28) was > 100 µM (inactive) and the GI50 (SK-MEL-2) was > 100 µM (inactive). For the same molecule, the GI50 (SK-MEL-5) was 57 µM (inactive), the GI50 (SK-OV-3) was > 100 µM (inactive) and the GI50 (SN12C) was > 100 µM (inactive). For the same molecule, the GI50 (SNB-19) was > 100 µM (inactive), the GI50 (SNB-75) was 55.5 µM (inactive) and the GI50 (SNB-78) was > 100 µM (inactive). The GI50 (SW-620) was > 100 µM (inactive), the GI50 (TK-10) was > 100 µM (inactive) and the GI50 (U-251) was > 100 µM (inactive). For the same molecule, the GI50 (UACC-257) was 89.1 µM (inactive), the GI50 (UACC-62) was > 80.4 µM (inactive) and the GI50 (UO-31) was 40.4 µM (inactive). For the same molecule, the GI50 (XF498) was > 100 µM (inactive).

In the case of `Cc1ccc(NC(=O)CC/C(CC(=O)C(C)(C)C)=N/Nc2nnc(C)n2N)cc1C`, the GI50 (786-0) is reported as > 100 µM (inactive), the GI50 (A498) is reported as > 100 µM (inactive) and the GI50 (A549) is reported as > 100 µM (inactive). The GI50 (ACHN) was > 100 µM (inactive), the GI50 (CAKI-1) was > 100 µM (inactive) and the GI50 (CCRF-CEM) was 65 µM (inactive). The GI50 (COLO 205) was > 100 µM (inactive), the GI50 (DMS-114) was 62.2 µM (inactive) and the GI50 (DMS-273) was 95.1 µM (inactive). The GI50 (EKVX) was 30.8 µM (inactive), the GI50 (HCC 2998) was > 100 µM (inactive) and the GI50 (HCT-116) was > 100 µM (inactive). For the same molecule, the GI50 (HCT-15) was > 100 µM, the GI50 (HL-60) was > 100 µM (inactive) and the GI50 (HOP-18) was > 100 µM (inactive). For the same molecule, the GI50 (HOP-62) was > 100 µM (inactive), the GI50 (HOP-92) was > 100 µM (inactive) and the GI50 (HT-29) was > 100 µM (inactive). The GI50 (IGROV-1) was > 100 µM (inactive), the GI50 (K562) was 43 µM (inactive) and the GI50 (KM-20L2) was > 100 µM (inactive). For the same molecule, the GI50 (KM12) was 84.9 µM (inactive), the GI50 (LOX IMVI) was > 100 µM (inactive) and the GI50 (LXFL 529) was > 100 µM (inactive). The GI50 (M14) was > 100 µM (inactive), the GI50 (M19-MEL) was > 100 µM (inactive) and the GI50 (MOLT-4) was 66.5 µM (inactive). The GI50 (Malme-3M) was > 100 µM (inactive), the GI50 (NCI-H226) was > 100 µM (inactive) and the GI50 (NCI-H23) was > 100 µM (inactive). For the same molecule, the GI50 (NCI-H460) was > 100 µM (inactive), the GI50 (NCI-H522) was > 100 µM (inactive) and the GI50 (OVCAR-3) was > 100 µM (inactive). For the same molecule, the GI50 (OVCAR-5) was > 100 µM (inactive), the GI50 (OVCAR-8) was > 100 µM (inactive) and the GI50 (RPMI-8226) was > 100 µM (inactive). The GI50 (RXF 393) was > 100 µM (inactive), the GI50 (RXF 631) was > 100 µM (inactive) and the GI50 (SF-268) was > 100 µM (inactive). For the same molecule, the GI50 (SF-295) was > 100 µM (inactive), the GI50 (SF-539) was > 100 µM (inactive) and the GI50 (SK-MEL-28) was > 100 µM (inactive). For the same molecule, the GI50 (SK-MEL-2) was > 100 µM (inactive), the GI50 (SK-MEL-5) was > 100 µM (inactive) and the GI50 (SK-OV-3) was > 100 µM (inactive). The GI50 (SN12C) was > 100 µM (inactive), the GI50 (SNB-19) was > 100 µM (inactive) and the GI50 (SNB-75) was > 100 µM (inactive). The GI50 (SNB-78) was > 100 µM (inactive), the GI50 (SR) was 94.8 µM (inactive) and the GI50 (SW-620) was > 100 µM (inactive). The GI50 (TK-10) was > 100 µM (inactive), the GI50 (U-251) was > 100 µM (inactive) and the GI50 (UACC-257) was > 100 µM (inactive). For the same molecule, the GI50 (UACC-62) was > 100 µM (inactive), the GI50 (UO-31) was > 100 µM (inactive) and the GI50 (XF498) was > 100 µM (inactive).

With `CCOC(=O)c1sc(Nc2cc(Cl)ccc2Cl)nc1C` the GI50 (786-0) was > 100 µM (inactive), the GI50 (A498) was > 100 µM (inactive) and the GI50 (A549) was 72.3 µM (inactive). For the same molecule, the GI50 (ACHN) was 35.5 µM (inactive), the GI50 (COLO 205) was > 100 µM (inactive) and the GI50 (DLD-1) was 44.7 µM (inactive). The GI50 (DMS-114) was 93.3 µM (inactive), the GI50 (EKVX) was > 100 µM (inactive) and the GI50 (HCC 2998) was > 100 µM (inactive). For the same molecule, the GI50 (HCT-116) was > 100 µM (inactive), the GI50 (HCT-15) was 67.8 µM and the GI50 (HL-60) was > 100 µM (inactive). For the same molecule, the GI50 (HOP-18) was > 100 µM (inactive), the GI50 (HOP-62) was > 100 µM (inactive) and the GI50 (HOP-92) was 22.6 µM (inactive). The GI50 (HT-29) was 50.2 µM (inactive), the GI50 (IGROV-1) was 73.1 µM (inactive) and the GI50 (K562) was 42.9 µM (inactive). For the same molecule, the GI50 (KM-20L2) was 54.7 µM (inactive), the GI50 (KM12) was > 100 µM (inactive) and the GI50 (LOX IMVI) was > 100 µM (inactive). For the same molecule, the GI50 (LXFL 529) was 91.4 µM (inactive), the GI50 (M19-MEL) was > 100 µM (inactive) and the GI50 (MOLT-4) was 29.6 µM (inactive). The GI50 (Malme-3M) was > 100 µM (inactive), the GI50 (NCI-H226) was 83.2 µM (inactive) and the GI50 (NCI-H23) was 34.4 µM (inactive). The GI50 (NCI-H460) was > 100 µM (inactive), the GI50 (NCI-H522) was > 100 µM (inactive) and the GI50 (OVCAR-3) was 84.1 µM (inactive). The GI50 (OVCAR-4) was > 100 µM (inactive), the GI50 (OVCAR-5) was 37.3 µM (inactive) and the GI50 (OVCAR-8) was 96.4 µM (inactive). The GI50 (RPMI-8226) was 53.2 µM (inactive), the GI50 (RXF 393) was > 100 µM (inactive) and the GI50 (RXF 631) was > 100 µM (inactive). The GI50 (SF-268) was > 100 µM (inactive), the GI50 (SF-295) was 64 µM (inactive) and the GI50 (SF-539) was > 100 µM (inactive). For the same molecule, the GI50 (SK-MEL-28) was > 100 µM (inactive), the GI50 (SK-MEL-2) was 95.1 µM (inactive) and the GI50 (SN12C) was 61.9 µM (inactive). For the same molecule, the GI50 (SNB-19) was > 100 µM (inactive), the GI50 (SNB-75) was 15.6 µM (inactive) and the GI50 (SNB-78) was > 100 µM (inactive). The GI50 (SR) was 52.5 µM (inactive), the GI50 (SW-620) was > 100 µM (inactive) and the GI50 (TK-10) was > 100 µM (inactive). For the same molecule, the GI50 (U-251) was > 100 µM (inactive), the GI50 (UACC-257) was 81.8 µM (inactive) and the GI50 (UO-31) was > 100 µM (inactive). For the same molecule, the GI50 (XF498) was 48.4 µM (inactive).
